“And” between values parts separate entries of the source, which are not always exact repeats. Equal entries are not always repeated. Inconclusive results and toxic doses are left out.

The test relates to P388 leukemia ip, CD2F1 mice, survival T/C. Briefly: NCI In Vivo Anticancer Drug Screen. Data for tumor model P388 Leukemia (intraperitoneal) in CD2F1 (CDF1) mice. To be noted: endpoint: median survival time, higher = longer survival. The gist of the method: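 Mice carrying the transplanted tumor received test compound or vehicle. Survival was recorded in each group, and the value is the treated-group measurement divided by that of the vehicle-treated control group.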

Setting [1] is: dose: 60.0 mg/kg/injection, schedule: Q01DX005 (ip), vehicle: saline with Tween-80.
Where [2] appears, read: dose: 120.0 mg/kg/injection, schedule: Q01DX005 (ip), vehicle: saline with Tween-80.
The mark [3] stands for this setting: dose: 200.0 mg/kg/injection, schedule: Q01DX009 (ip), vehicle: distilled water + Tween-80.
[4] abbreviates: dose: 400.0 mg/kg/injection, schedule: Q01DX009 (ip), vehicle: distilled water + Tween-80.
[5] abbreviates: dose: 50.0 mg/kg/injection, schedule: Q01DX009 (ip), vehicle: Klucel (hydroxypropylcellulose) (HPC).
[6] abbreviates: dose: 100.0 mg/kg/injection, schedule: Q01DX009 (ip), vehicle: Klucel (hydroxypropylcellulose) (HPC).
Where [7] appears, read: dose: 200.0 mg/kg/injection, schedule: Q01DX009 (ip), vehicle: Klucel (hydroxypropylcellulose) (HPC).
The mark [8] stands for this setting: dose: 50.0 mg/kg/injection, schedule: Q01DX005 (ip), vehicle: Klucel (hydroxypropylcellulose) (HPC).
Where [9] appears, read: dose: 240.0 mg/kg/injection, schedule: Q01DX005 (ip), vehicle: saline with Tween-80.

Consider `c1ccc2cc3n[se]nc3cc2c1`, for which the T/C by setting is: under setting [1], 100 % of control; under setting [2], 90 % of control.
Take `COc1c2occc2c(NC(=O)CI)c2ccc(=O)oc12`: the T/C runs as follows: (dose: 25.0 mg/kg/injection, schedule: Q04DX002 (ip), vehicle: saline with Tween-80) 102 % of control; (dose: 50.0 mg/kg/injection, schedule: Q04DX002 (ip), vehicle: saline with Tween-80) 101 % of control; (dose: 100.0 mg/kg/injection, schedule: Q04DX002 (ip), vehicle: saline with Tween-80) 101 % of control.
With `CCOC(=O)c1ccc(NC(=S)Nc2nccs2)cc1`, the T/C is, setting by setting: (dose: 25.0 mg/kg/injection, schedule: Q01DX009 (ip), vehicle: distilled water + Tween-80) 99 % of control; (dose: 50.0 mg/kg/injection, schedule: Q01DX009 (ip), vehicle: distilled water + Tween-80) 101 % of control; (dose: 100.0 mg/kg/injection, schedule: Q01DX009 (ip), vehicle: distilled water + Tween-80) 95 % of control; under setting [3], 92 % of control; under setting [4], 92 % of control.
On to `Nc1nncc(-c2ccccc2)n1`, for which the T/C reads like this: (dose: 25.0 mg/kg/injection, schedule: Q01DX009 (ip), vehicle: Klucel (hydroxypropylcellulose) (HPC)) 97 % of control; under setting [5], 97 % of control; under setting [6], 96 % of control; under setting [7], 110 % of control.
`CCOC(=O)/C=C/c1nc(C(=O)OCC)c(C)c(=O)[nH]1`: the T/C is 120 % of control (dose: 1.0 mg/kg/injection, schedule: Q01DX009 (ip), vehicle: other); 99 % of control (dose: 2.0 mg/kg/injection, schedule: Q01DX009 (ip), vehicle: other); 99 % of control (dose: 4.0 mg/kg/injection, schedule: Q01DX009 (ip), vehicle: other); 107 % of control (dose: 8.0 mg/kg/injection, schedule: Q01DX009 (ip), vehicle: other); 104 % of control and 95 % of control (dose: 16.0 mg/kg/injection, schedule: Q01DX009 (ip), vehicle: other); 95 % of control (dose: 32.0 mg/kg/injection, schedule: Q01DX009 (ip), vehicle: other). The T/C reads like this: (dose: 64.0 mg/kg/injection, schedule: Q01DX009 (ip), vehicle: other) 92 % of control; (dose: 128.0 mg/kg/injection, schedule: Q01DX009 (ip), vehicle: other) 95 % of control; under setting [3], 99 % of control; (dose: 256.0 mg/kg/injection, schedule: Q01DX009 (ip), vehicle: other) 113 % of control; under setting [4], 100 % of control.
`Oc1cc2c(cc1C1COc3cc(OCc4ccccc4)ccc3C1)OCO2` (centres undefined): the T/C runs as follows: (dose: 50.0 mg/kg/injection, schedule: Q01DX001 (ip), vehicle: Klucel (hydroxypropylcellulose) (HPC)) 95 % of control; (dose: 100.0 mg/kg/injection, schedule: Q01DX001 (ip), vehicle: Klucel (hydroxypropylcellulose) (HPC)) 90 % of control; (dose: 200.0 mg/kg/injection, schedule: Q01DX001 (ip), vehicle: Klucel (hydroxypropylcellulose) (HPC)) 93 % of control.
In the case of `CC(C)(C)N=C(CCC(C#N)(C#N)CCC(=NC(C)(C)C)Nc1c(Cl)cccc1Cl)Nc1c(Cl)cccc1Cl`, the T/C is, setting by setting: (dose: 50.0 mg/kg/injection, schedule: Q01DX009 (ip), vehicle: saline with Tween-80) 99 % of control; (dose: 100.0 mg/kg/injection, schedule: Q01DX009 (ip), vehicle: saline with Tween-80) 92 % of control; (dose: 200.0 mg/kg/injection, schedule: Q01DX009 (ip), vehicle: saline with Tween-80) 92 % of control.
Regarding `CN(N=O)C(=O)NCCSSCCNC(=O)N(C)N=O`, the T/C is 115 % of control (dose: 20.0 mg/kg/injection, schedule: Q04DX003 (ip), vehicle: saline with Tween-80); 177 % of control (dose: 40.0 mg/kg/injection, schedule: Q01DX009 (ip), vehicle: saline with Tween-80); 155 % of control (dose: 80.0 mg/kg/injection, schedule: Q04DX003 (ip), vehicle: saline with Tween-80).
Consider `O=C(COc1ccc(Cl)cc1)OCCN1CCCCCC1`, for which the T/C reads like this: (dose: 60.0 mg/kg/injection, schedule: Q01DX005 (ip), vehicle: saline) 109 % of control; (dose: 120.0 mg/kg/injection, schedule: Q01DX005 (ip), vehicle: saline) 110 % of control; (dose: 240.0 mg/kg/injection, schedule: Q01DX005 (ip), vehicle: saline) 100 % of control.
Consider `CCOC(=O)CC(=O)Nc1sc(CC)cc1C(=O)OCC`, for which the T/C is, setting by setting: under setting [1], 100 % of control; under setting [2], 94 % of control.
In the case of `CSc1cccc(NC(=O)Oc2cccnc2)c1`, the T/C is 103 % of control under setting [5], 100 % of control under setting [6] and 100 % of control under setting [7].
In the case of `CC1(C)CC(N2CCOCC2)=CC(=NCc2ccccc2)N1`, the T/C (dose: 12.5 mg/kg/injection, schedule: Q01DX005 (ip), vehicle: Klucel (hydroxypropylcellulose) (HPC)) was 107 % of control; the T/C (dose: 25.0 mg/kg/injection, schedule: Q01DX005 (ip), vehicle: Klucel (hydroxypropylcellulose) (HPC)) was 99 % of control; the T/C under setting [8] was 100 % of control and 101 % of control.
In the case of `CS(=O)CCC(N)P(=O)(O)O` (centres undefined), the T/C runs as follows: (dose: 50.0 mg/kg/injection, schedule: Q01DX005 (ip), vehicle: saline) 92 % of control; (dose: 100.0 mg/kg/injection, schedule: Q01DX005 (ip), vehicle: saline) 99 % of control; (dose: 200.0 mg/kg/injection, schedule: Q01DX005 (ip), vehicle: saline) 99 % of control.
Take `Cc1c([N+](=O)[O-])cc(Br)c2ccccc12`: the T/C is, setting by setting: (dose: 25.0 mg/kg/injection, schedule: Q01DX009 (ip), vehicle: water) 108 % of control; (dose: 50.0 mg/kg/injection, schedule: Q01DX009 (ip), vehicle: water) 94 % of control; (dose: 100.0 mg/kg/injection, schedule: Q01DX009 (ip), vehicle: water) 93 % of control.
With `OCCC(N1CCOCC1)C(O)(c1ccccc1)c1ccccc1` (centres undefined), the T/C under setting [1] is 93 % of control, the T/C under setting [2] was 93 % of control and the T/C under setting [9] was 97 % of control.
Turning to `C[CH2][Ge]([CH2]C)[CH2]C.C[CH2][Ge]([CH2]C)[CH2]C.C[CH2][Ge]([CH2]C)[S][Ge]([CH2]C)[CH2]C`, the T/C was 96 % of control under setting [1], 100 % of control under setting [2] and 99 % of control under setting [9].
Consider `CC(=O)/C=C/C=C/c1ccc2c(c1)OC(CO)C(c1ccc(O)c(O)c1)O2` (centres undefined), for which the T/C is, setting by setting: under setting [8], 95 % of control; (dose: 100.0 mg/kg/injection, schedule: Q01DX005 (ip), vehicle: Klucel (hydroxypropylcellulose) (HPC)) 90 % of control and 95 % of control; (dose: 200.0 mg/kg/injection, schedule: Q01DX005 (ip), vehicle: Klucel (hydroxypropylcellulose) (HPC)) 87 % of control; (dose: 400.0 mg/kg/injection, schedule: Q01DX005 (ip), vehicle: Klucel (hydroxypropylcellulose) (HPC)) 87 % of control.
In the case of `c1ccc(Cn2ccnc2)nc1`, the T/C is 103 % of control (dose: 50.0 mg/kg/injection, schedule: Q04DX003 (ip), vehicle: saline); 100 % of control (dose: 100.0 mg/kg/injection, schedule: Q04DX003 (ip), vehicle: saline); 101 % of control (dose: 200.0 mg/kg/injection, schedule: Q04DX003 (ip), vehicle: saline).
